Measurements from patent US5001154A, “Fervescence composition” (K.K. Ueno Seiyaku Oyo Kenkyujo, priority 1987, dated 1991).

Test: fervescence activity by intravenous injection (rising of body temperature), 1 mg/kg
Assay type: in vivo, Wister male rats
Settings: 1 mg/kg intravenous, urethane-anesthetized rats
Experimental: fervescence activity by intravenous injection Test animals were Wister male rats (8 weeks old) weighing 200±10 g. The rats were applied to anesthesia by intraperitoneal injection of 1.25 g/kg of urethane. Each test drug was dissolved into ethyl alcohol. The ethyl alcohol solution was diluted with Ringer's solution at least 50 times just before use and 1 mg/kg of the each test drug was intravenously administered. Body temperature was measured in the same manner as in Example 1. Ringer's solution containing ethyl alcohol was administered as control. Rising of body temperature is shown by the rising degree (°C.) from the temperature before administration.

| SMILES | Rising of Body Temperature |
| --- | --- |
| CCCCCC(=O)CC[C@H]1[C@H](O)CC(=O)[C@@H]1CC(=O)CCCCC(=O)OCC (relative stereo) [compound 9] | +0.7 °C |
| CCCCCC(=O)CC[C@H]1[C@H](O)CC(=O)[C@@H]1CCCCC=CC(=O)O [compound 3] | 0 °C |
| CCCCCC(=O)CC[C@H]1[C@H](O)CC(=O)[C@@H]1CCCCC=CC(=O)OC [compound 4] | +0.8 °C |
| CCCCCCCC(=O)CC[C@H]1[C@H](O)CC(=O)[C@@H]1CCCCCCC(=O)OC [compound 5] | +0.4 °C |
| CCCCCC(=O)CC[C@H]1[C@H](O)CC(=O)[C@@H]1CC(=O)CCCCC(=O)OCCCC [compound 10] | +0.2 °C |
| CCCCC(C)C(=O)CC[C@H]1[C@H](O)CC(=O)[C@@H]1CC(=O)CCCCC(=O)OC (stereo partly shown) [compound 11] | +1.5 °C |
| CCCCC(C)C(=O)CC[C@H]1[C@H](O)CC(=O)[C@@H]1CC(=O)CCCCC(=O)OCC (stereo partly shown) [compound 12] | +0.9 °C |
| CCCCC(C)(C)C(=O)CC[C@H]1[C@H](O)CC(=O)[C@@H]1CC(=O)CCCCC(=O)OCC [compound 13] | +1.1 °C |
| CCCCC(F)C(=O)CC[C@H]1[C@H](O)CC(=O)[C@@H]1CC(=O)CCCCC(=O)OCC (stereo partly shown) [compound 14] | +1.0 °C |
| COC(=O)CCCCC(=O)C[C@H]1C(=O)C[C@@H](CO)[C@@H]1CCC(=O)CCCC(C)C [compound 17] | +0.4 °C |
| CCCCCC(=O)CC[C@H]1[C@H](C)CC(=O)[C@@H]1CC(=O)CCCCC(=O)OC [compound 19] | +1.0 °C |
| CCCCC(F)C(=O)CC[C@H]1[C@H](C)CC(=O)[C@@H]1CC(=O)CCCCC(=O)OCC (stereo partly shown) [compound 21] | +1.1 °C |
| CCCCCC(=O)CC[C@H]1[C@H](O)CC(=O)[C@@H]1C/C=C\CCCC(=O)OCc1ccccc1 [compound 27] | +0.3 °C |
| CCCCCC(=O)CC[C@H]1[C@H](O)CC(=O)[C@@H]1C/C=C\CCCC(=O)OCCO [compound 28] | +0.4 °C |
| CCCCCC(=O)CC[C@H]1[C@H](O)CC(=O)[C@@H]1C/C=C\CC=CC(=O)OC [compound 29] | +1.0 °C |
| CCCCCC(=O)CC[C@H]1[C@H](O)CC(=O)[C@@H]1C/C=C\CC(C)CC(=O)OC (stereo partly shown) [compound 30] | +1.7 °C |
| CCCCCC(=O)CC[C@H]1[C@H](O)CC(=O)[C@@H]1C/C=C\CC(C)CC(=O)OCC (stereo partly shown) [compound 31] | +1.0 °C |
| CCCCC(C)C(=O)CC[C@H]1[C@H](O)CC(=O)[C@@H]1C/C=C\CCCC(=O)OC (stereo partly shown) [compound 32] | +1.4 °C |
| CCCCC(C)C(=O)CC[C@H]1[C@H](O)CC(=O)[C@@H]1C/C=C\CCCC(=O)OCC (stereo partly shown) [compound 33] | +0.9 °C |
| CCCCC(C)C(=O)CC[C@H]1[C@H](O)CC(=O)[C@@H]1C/C=C\CC(C)CC(=O)OC (stereo partly shown) [compound 34] | +1.0 °C |
| CCCCC(C)(C)C(=O)CC[C@H]1[C@H](O)CC(=O)[C@@H]1C/C=C\CCCC(=O)OC [compound 35] | +1.0 °C |
| CCCCC(C)(C)C(=O)CC[C@H]1[C@H](O)CC(=O)[C@@H]1C/C=C\CCCC(=O)OCC [compound 36] | +0.6 °C |

| SMILES | Rising of Body Temperature |
| --- | --- |
| CCCCC(O)C(=O)CC[C@H]1[C@H](O)CC(=O)[C@@H]1C/C=C\CCCC(=O)OCC (stereo partly shown) [compound 37] | +0.2 °C |
| CCCCC(F)C(=O)CC[C@H]1[C@H](O)CC(=O)[C@@H]1C/C=C\CCCC(=O)O (stereo partly shown) [compound 38] | +0.3 °C |
| CCCCC(F)C(=O)CC[C@H]1[C@H](O)CC(=O)[C@@H]1C/C=C\CCCC(=O)OC (stereo partly shown) [compound 39] | +0.9 °C |
| CCCCC(F)C(=O)CC[C@H]1[C@H](O)CC(=O)[C@@H]1C/C=C\CCCC(=O)OCC (stereo partly shown) [compound 40] | +1.4 °C |
| CCCCCC(F)C(=O)CC[C@H]1[C@H](O)CC(=O)[C@@H]1C/C=C\CCCC(=O)OC (stereo partly shown) [compound 41] | +0.8 °C |
| CCCCC(F)C(=O)CC[C@H]1[C@H](C)CC(=O)[C@@H]1C/C=C\CCCC(=O)OCC (stereo partly shown) [compound 42] | +1.4 °C |
| CCCCCC(=O)CC[C@H]1[C@H](C)CC(=O)[C@@H]1C/C=C\CCCC(=O)OCC [compound 43] | +0.2 °C |
| CCC[C@H](C)CC(=O)CC[C@H]1[C@H](O)CC(=O)[C@@H]1C/C=C\CCCC(=O)OC [compound 44] | +0.2 °C |
| CCOC(=O)CCC/C=C\C[C@H]1C(=O)C[C@@H](O)[C@@H]1CCC(=O)CCCC(C)C [compound 46] | +0.6 °C |
| COCCCCCC(=O)CC[C@H]1[C@H](O)CC(=O)[C@@H]1C/C=C\CCCC(=O)OC [compound 47] | +0.3 °C |
| COCCCCCC(=O)CC[C@H]1[C@H](O)CC(=O)[C@@H]1C/C=C\CC=CC(=O)OC [compound 48] | +0.2 °C |
| COCCCCCC(=O)CC[C@H]1[C@H](O)CC(=O)[C@@H]1C/C=C\CC(C)CC(=O)OC (stereo partly shown) [compound 49] | +0.2 °C |
| COCCCCC(C)(C)C(=O)CC[C@H]1[C@H](O)CC(=O)[C@@H]1C/C=C\CCCC(=O)OC [compound 50] | +0.2 °C |
| CC(C)=CCCCCC(=O)CC[C@H]1[C@H](O)CC(=O)[C@@H]1C/C=C\CCCC(=O)O [compound 51] | +0.2 °C |
| COC(=O)CCC/C=C\C[C@H]1C(=O)C[C@@H](O)[C@@H]1CCC(=O)CCCCC=C(C)C [compound 52] | +0.2 °C |
| CCCCCCCC(=O)CC[C@H]1[C@H](O)CC(=O)[C@@H]1C/C=C\CCCC(=O)OC [compound 53] | +0.5 °C |
| CCCCCCCC(=O)CC[C@H]1[C@H](O)CC(=O)[C@@H]1C/C=C\CCCC(=O)OCC [compound 54] | +0.2 °C |
| CCCCCCCC(=O)CC[C@H]1[C@H](C)CC(=O)[C@@H]1C/C=C\CCCC(=O)OC [compound 55] | +0.2 °C |
| CCCCC(F)C(=O)/C=C/[C@H]1[C@H](O)CC(=O)[C@@H]1C/C=C\CCCC(=O)OC (stereo partly shown) [compound 56] | +1.0 °C |
| CCCCC[C@H](O)/C=C/[C@H]1[C@H](O)CC(=O)[C@@H]1CCCCCCC(=O)O [compound 57] | 0 °C |
| CCCCC[C@H](O)/C=C/[C@H]1[C@H](O)CC(=O)[C@@H]1C/C=C\CCCC(=O)O [compound 58] | +0.7 °C |
